pIC50: −log10 of the molar value.
Legend:
[1] = target: T1, cathepsin B (Sigma, C-6286) (Bos taurus, UniProt P07688); experiment: Inhibitory activity against cathepsin B; type: biochemical; details: Inhibitory activity against cathepsin B (Table-5)
T1 construct: purchased Sigma C-6286
Experimental: Inhibitory activity against cathepsin B (Sigma, C-6286) was determined according to a method described in a literature (Biochemical Journal, Vol. 201, p. 189, 1982).

m-Calpain = target: T2, m-Calpain (Rattus norvegicus, UniProt Q07009); experiment: Inhibitory activity against calpain (m-Calpain purified from brains of rats); type: biochemical
T2 construct: m-Calpain was purified from brains of rats; from tissue; host or cells: rat brain
T2 sequence (Q07009 20-700 limits assumed): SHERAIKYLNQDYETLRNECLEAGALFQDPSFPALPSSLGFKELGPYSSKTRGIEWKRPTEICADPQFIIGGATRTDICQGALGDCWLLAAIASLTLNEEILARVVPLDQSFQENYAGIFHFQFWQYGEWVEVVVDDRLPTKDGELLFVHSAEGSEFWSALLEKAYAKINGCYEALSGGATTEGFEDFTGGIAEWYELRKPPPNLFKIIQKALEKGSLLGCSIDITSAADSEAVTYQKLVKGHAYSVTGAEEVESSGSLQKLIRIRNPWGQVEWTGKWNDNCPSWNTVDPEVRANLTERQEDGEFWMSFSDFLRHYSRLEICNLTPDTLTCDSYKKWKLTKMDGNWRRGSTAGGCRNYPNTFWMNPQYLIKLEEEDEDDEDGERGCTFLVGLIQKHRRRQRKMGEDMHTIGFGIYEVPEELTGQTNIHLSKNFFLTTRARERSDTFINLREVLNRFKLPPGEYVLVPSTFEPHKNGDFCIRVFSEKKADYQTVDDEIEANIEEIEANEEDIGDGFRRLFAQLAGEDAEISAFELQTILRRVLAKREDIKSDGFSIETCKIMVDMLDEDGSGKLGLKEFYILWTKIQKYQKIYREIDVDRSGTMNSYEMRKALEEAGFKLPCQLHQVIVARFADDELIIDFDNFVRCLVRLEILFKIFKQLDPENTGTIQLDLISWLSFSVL
T2 sequence (Q64537 1-270 partner): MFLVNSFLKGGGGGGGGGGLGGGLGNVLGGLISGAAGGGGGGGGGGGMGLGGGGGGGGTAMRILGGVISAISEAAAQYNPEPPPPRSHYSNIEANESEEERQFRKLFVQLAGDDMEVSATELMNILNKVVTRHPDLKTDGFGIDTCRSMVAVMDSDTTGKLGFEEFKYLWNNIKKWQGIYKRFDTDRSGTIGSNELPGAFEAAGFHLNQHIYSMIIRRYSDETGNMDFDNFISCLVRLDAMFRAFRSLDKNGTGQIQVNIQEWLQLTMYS
Experimental: m-Calpain was purified from brains of rats according to a method described in a literature (Journal of Biological Chemistry, Vol. 259, p. 3210, 1984), and the inhibitory activity was determined in a manner according to a published method (Journal of Biological Chemistry, Vol. 259, p. 12489, 1984).

[2] = Inhibitory activity against calpain (Table-6)
[3] = Inhibitory activity against calpain (continuation of Table-6)

| pIC50 [1] | pIC50 (m-Calpain; [2]) | pIC50 (m-Calpain; [3]) | Compound |
| --- | --- | --- | --- |
| 6.05 | 6.19 |  | COc1cc(OC)cc(C(=O)N[C@@H](CC(C)C)C(=O)N[C@H]2CCOC2O)c1 (stereo partly drawn) [Example 56, (3S)-3-{(S)-2-(3,5-dimethoxybenzoylamino)-4-methylvalerylamino}-2-tetrahydrofuranol] |
| 5.62 |  | 6.42 | CC(C)C[C@H](NS(=O)(=O)c1cccc2ccccc12)C(=O)N[C@H]1CCOC1O (stereo partly drawn) [Example 75, (3S)-3-{(S)-4-methyl-2-(1-naphtylsulfonylamino)valerylamino}-2-tetrahydrofuranol] |
| 5.89 |  | 6.11 | CC(C)C[C@H](NC(=O)[C@H](CC(C)C)NS(=O)(=O)c1ccccc1)C(=O)N[C@H]1CCOC1O (stereo partly drawn) [Example 87, (3S)-3-{(S)-2-((S)-4-methyl-2-phenylsulfonylaminovalerylamino)-4-methylvalerylamino}-2-tetrahydrofuranol] |
| 6.62 |  | 6.60 | CCOc1ccc(C(=O)N[C@@H](CC(C)C)C(=O)N[C@H]2CCOC2O)cc1 (stereo partly drawn) [Example 57, (3S)-3-{(S)-2-(4-ethoxybenzoylamino)-4-methylvalerylamino}-2-tetrahydrofuranol] |
| 6.34 |  | 6.36 | CC(C)C[C@H](NC(=O)c1ccc2c(c1)OCO2)C(=O)N[C@H]1CCOC1O (stereo partly drawn) [Example 58, (3S)-3-{(S)-4-methyl-2-(3,4-methylenedioxybenzoylamino)valerylamino}-2-tetrahydrofuranol] |
| 6.38 | 6.21 |  | CC(C)C[C@H](NS(=O)(=O)c1ccccc1)C(=O)N[C@H]1CCOC1O (stereo partly drawn) [Example 1, (3S)-3-((S)-4-methyl-2-phenylsulfonylaminovalerylamino)-2-tetrahydrofuranol] |
| 5.92 | 6.19 |  | CC(C)C[C@H](NC(=O)OC1CCCCC1)C(=O)N[C@H]1CCOC1O (stereo partly drawn) [Example 27, (3S)-3-((S)-2-cyclohexyloxycarbonylamino-4-methylvalerylamino)-2-tetrahydrofuranol] |
| 5.84 | 6.24 |  | Cc1ccccc1C(=O)N[C@@H](CC(C)C)C(=O)N[C@H]1CCOC1O (stereo partly drawn) [Example 44, (3S)-3-{(S)-4-methyl-2-(2-methylbenzoylamino)valerylamino}-2-tetrahydrofuranol] |
| 6.15 | 6.17 |  | CC(C)C[C@H](NC(=O)OCc1ccc(F)cc1)C(=O)N[C@H]1CCOC1O (stereo partly drawn) [Example 15, (3S)-3-{(S)-2-(4-fluorobenzyloxycarbonylamino)-4-methylvalerylamino}-2-tetrahydrofuranol] |
| 5.87 | 5.64 |  | CCCC[C@H](NC(=O)OCc1ccccc1)C(=O)N[C@H]1CCOC1O (stereo partly drawn) [Example 6, (3S)-3-((S)-2-benzyloxycarbonylaminohexanoylamino)-2-tetrahydrofuranol] |
| 6.01 | 5.64 |  | CC(C)[C@H](NC(=O)OCc1ccccc1)C(=O)NC1CCOC1O (stereo partly drawn) [Example 5, 3-((S)-2-benzyloxycarbonylamino-3-methylbutyrylamino)-2-tetrahydrofuranol] |
| 6.82 | 6.17 |  | COc1ccc(C(=O)N[C@@H](CC(C)C)C(=O)N[C@H]2CCOC2O)cc1 (stereo partly drawn) [Example 53, (3S)-3-{(S)-2-(4-methoxybenzoylamino)-4-methylvalerylamino}-2-tetrahydrofuranol] |

| Compound | pIC50 [1] | pIC50 (m-Calpain; [2]) | pIC50 (m-Calpain; [3]) |
| --- | --- | --- | --- |
| CC(C)C[C@H](NC(=O)Oc1ccccc1)C(=O)N[C@H]1CCOC1O (stereo partly drawn) [Example 28, (3S)-3-((S)-4-methyl-2-phenoxycarbonylaminovalerylamino)-2-tetrahydrofuranol] | 5.77 | 6.28 |  |
| CCc1cc(C(=O)N[C@@H](CC(C)C)C(=O)N[C@H]2CCOC2O)n(C)n1 (stereo partly drawn) [Example 62, (3S)-3-{(S)-2-(3-ethyl-1-methyl-5-pyrazole)carbonylamino-4-methylvalerylamino}-2-tetrahydrofuranol] | 6.30 |  | 6.00 |
| CC(C)C[C@H](NC(=O)OC(C)(C)C)C(=O)N[C@H]1CCOC1O (stereo partly drawn) [Example 10, (3S)-3-((S)-2-tert-butoxycarbonylamino-4-methylvalerylamino)-2-tetrahydrofuranol] | 6.43 | 6.02 |  |
